# Results published in patent publication US4695552A, “Process and reagent for the determination of the hemoglobin-haptoglobin complex in the presence of free hemoglobin” (Boehringer Mannheim GmbH, priority 1983, dated 1987).
# How the values were obtained:
# Format in all cases: biochemical
# [1] = target: T1, free hemoglobin (Hb) (Homo sapiens, UniProt P68871+P69905); experiment: Peroxidase reaction of free hemoglobin with perborate and ABTS as substrate, with detergent added; details: ABTS 0.5 mmol/l., pH 3.8, 0.25 mg. Hb/ml.
# T1 sequence (P69905 2-142 limits assumed): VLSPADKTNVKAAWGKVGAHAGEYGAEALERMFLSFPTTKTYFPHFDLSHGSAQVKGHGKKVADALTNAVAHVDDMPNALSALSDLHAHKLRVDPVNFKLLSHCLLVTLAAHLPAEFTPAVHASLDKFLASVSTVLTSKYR
# T1 sequence (P68871 2-147 limits assumed): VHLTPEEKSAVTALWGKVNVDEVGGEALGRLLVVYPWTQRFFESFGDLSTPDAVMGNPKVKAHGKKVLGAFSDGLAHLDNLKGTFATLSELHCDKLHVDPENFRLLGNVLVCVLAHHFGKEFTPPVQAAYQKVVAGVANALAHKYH
# Procedure: (§1) 2 ml. of a reagent solution containing 0.1 mol/liter of sodium citrate buffer (pH 3.8) and 0.5 mmol/liter ABTS are mixed with 0.025 ml. of a sample solution which contains free hemoglobin or the hemoglobin-haptoglobin complex with a hemoglobin concentration of 0.25 mg. Hb/ml. The peroxidase reaction is started with 0.020 ml. of 0.58 molar sodium perborate solution in 0.15 molar citric acid and the color development is monitored by extinction measurement at 436 nm. The reaction temperature is 25° C.
# (§2) Analogous measurements are carried out in which, in addition to the above-mentioned components, there are added to the reagent solution the detergents mentioned in the following Table 3 in the concentrations there also given.
# [2] = target: T2, hemoglobin haptoglobin complex (Hb:Hp) (Homo sapiens, UniProt P68871+P69905); experiment: Peroxidase reaction of hemoglobin-haptoglobin complex with perborate and ABTS as substrate, with detergent added; details: ABTS 0.5 mmol/l., pH 3.8
# T2 sequence (P69905 2-142 limits assumed): as the sequence (P69905 2-142 limits assumed) above
# T2 sequence (P68871 2-147 limits assumed): as the sequence (P68871 2-147 limits assumed) above
# T2 sequence (P00738 162-406 partner limits assumed): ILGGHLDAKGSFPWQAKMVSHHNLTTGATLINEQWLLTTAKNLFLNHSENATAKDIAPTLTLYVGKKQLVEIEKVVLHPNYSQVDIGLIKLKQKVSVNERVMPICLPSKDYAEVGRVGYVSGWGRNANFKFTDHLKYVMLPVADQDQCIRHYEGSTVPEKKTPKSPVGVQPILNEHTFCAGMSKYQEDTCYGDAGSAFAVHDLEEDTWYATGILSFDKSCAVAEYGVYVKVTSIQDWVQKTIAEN
# Procedure: as §1, §2
# [3] = target: T1, free hemoglobin (Hb); experiment: Peroxidase reaction of free hemoglobin with peroxide and guaiacol as substrate, with detergent added; details: digitonin 0.5 mg./ml.; guaiacol 30 mmol/l.; pH 4.0; 0.25 mg. Hb/ml.
# Procedure: (§3) 2 ml. of a reagent solution containing 0.1 mol/liter of sodium acetate buffer (pH 4.0) and 30 or 15 mmol/liter of guaiacol are mixed with 0.05 ml. of a sample solution which contains free hemoglobin or a hemoglobin-haptoglobin complex with a hemoglobin concentration of 0.25 mg. Hb/ml. The peroxidase reaction is started with 0.1 ml. of 0.58 molar sodium perborate solution in 0.15 molar citric acid and the color development is monitored by extinction measurement at 436 nm. The reaction temperature is 25° C. After a certain time, the color development comes to a stop. Because of the instability of the colored material, the extinction again decreases. The extinction changes given in the following Table 4 are the initial velocities determined by plotting the tangents on the extinction-time curves.
# (§4) Analogous measurements are carried out in which, to the reagent solution, there has been added, in each case, one of the detergents given in Table 4 in the there-given concentration.
# [4] = target: T2, hemoglobin haptoglobin complex (Hb:Hp); experiment: Peroxidase reaction of hemoglobin-haptoglobin complex with peroxide and guaiacol as substrate, with detergent added; details: digitonin 0.5 mg./ml.; guaiacol 30 mmol/l.; pH 4.0
# Procedure: as §3, §4
smiles,measurement,setting,value
C[C@@H]1CC[C@@]2(OC1)O[C@H]1[C@@H](O)[C@H]3[C@@H]4CC[C@H]5C[C@@H](O[C@@H]6O[C@H](CO)[C@H](O[C@@H]7O[C@H](CO)[C@@H](O)[C@H](O[C@@H]8OC[C@@H](O)[C@H](O)[C@H]8O)[C@H]7O[C@@H]7O[C@H](CO)[C@H](O)[C@H](O[C@@H]8O[C@H](CO)[C@@H](O)[C@H](O)[C@H]8O)[C@H]7O)[C@H](O)[C@H]6O)[C@H](O)C[C@]5(C)[C@H]4CC[C@]3(C)[C@H]1[C@@H]2C [digitonin],ΔE/min. Hb,[1]; digitonin 0.15 mg./ml.,21.8 mE/min.
same,ΔE/min. Hb,[1]; digitonin 0.3 mg./ml.,20 mE/min.
same,Hb:Hp / Hb,[2]; digitonin 0.15 mg./ml.,37.6
same,ΔE/min. Hb:Hp,[2]; digitonin 0.15 mg./ml.,818 mE/min.
same,Hb:Hp / Hb,[2]; digitonin 0.3 mg./ml.,41
same,ΔE/min. Hb:Hp,[2]; digitonin 0.3 mg./ml.,818 mE/min.
same,ΔE/min. Hb,[3],3 mE/min.
same,Hb:Hp / Hb,[4],50
same,ΔE/min. Hb:Hp,[4],154 mE/min.
